Measured values reported in patent US20260207769A1, “ANTIBODY DRUG CONJUGATES” (YALE UNIVERSITY, priority 2022, published 2026).

Legend:
GL261 glioma cells = assay: Cell viability of GL261 cells (DM1, cD31N-DM1); assay type: cell-based; conditions: after 6 days
Source text: (§1) Cancer cell lines were acquired from ATCC and cultured according to well known methods in the art. Treatment with cytotoxic agents, antibodies, or ADCs refers to the addition of the cytotoxic agent, antibody or ADC (i.e., DM1 or cD31N-DM1, etc.) to the culture media for a set duration.

[1] = system: WT DLD-1 colorectal adenocarcinoma cells; assay: Cell viability assay in WT DLD-1 cells; assay type: cell-based, human; conditions: after 6 days
Source text: as §1
(§2) BRCA2 deficient (BRCA2′) cells are more sensitive to DM1 because BRCA2 participates in DNA double-stranded break (DSB) repair.
The viability assay protocol is set forth in Example 3.

[2] = system: Capan-1 pancreatic cancer cells; assay: Cell viability of Capan-1 cells (DM1, cD31N-DM1); assay type: cell-based; conditions: after 6 days
Source text: as §1

B16 melanoma cells = assay: Cell viability of B16 melanoma cells (DM1, cD31N-DM1); assay type: cell-based; conditions: 0.0001 nm to 1000 nm, after 3 days
Source text: as §1

[3] = system: DAYO medulloblastoma cells; assay: Cell viability of DAYO cells (DM1, cD31N-DM1); assay type: cell-based; conditions: after 3 days
Source text: as §1

[4] = system: BRCA2^−/− DLD-1 colorectal adenocarcinoma cells; assay: Cell viability assay in BRCA2-/- DLD-1 cells; assay type: cell-based, human; conditions: BRCA2-/- DLD-1 cells, after 6 days
Source text: as §1, §2

[5] = system: PEO-1 (BRCA2^−/−) ovarian adenocarcinoma cells; assay: Cell viability of PEO-1 cells; assay type: cell-based; conditions: BRCA2-/- PEO-1 cells, after 5 days
Source text: as §1
(§3) The effects of longer-term treatment with SN38 and cD31N-SN38 on PEO-4 (WT) and PEO-1 (BRCA2^−/−) ovarian cancer cells were investigated.

[6] = system: PEO-4 (WT) ovarian adenocarcinoma cells; assay: Cell viability of PEO-4 cells; assay type: cell-based; conditions: WT PEO-4 cells, after 5 days
Source text: as §1, §3

COc1cc2cc(c1Cl)N(C)C(=O)C[C@H](OC(=O)[C@H](C)N(C)C(=O)CCS)[C@]1(C)O[C@H]1[C@H](C)[C@@H]1C[C@@](O)(NC(=O)O1)[C@H](OC)/C=C/C=C(\C)C2 [DM1, N(2′)-deacetyl-N(2′)-(3-mercapto-1-oxopropyl)-maytansine]
cytotoxicity (cell viability) (GL261 glioma cells): cytotoxic to the GL261 glioma cells in a concentration-dependent manner
cytotoxicity (cell viability) [1]: cytotoxic
cytotoxicity (cell viability) [2]: cytotoxic to the Capan-1 pancreatic cancer cells in a concentration-dependent manner
cytotoxicity (cell viability) (B16 melanoma cells): cytotoxic to B16 melanoma cells in a concentration-dependent manner
cytotoxicity (cell viability) [3]: cytotoxic to the DAYO medulloblastoma cells in a concentration-dependent manner
cytotoxicity (cell viability) [4]: cytotoxic
cytotoxicity (cell viability) [5]: cytotoxic
cytotoxicity (cell viability) [6]: cytotoxic
